# Data reported in US20260014184A1, “ADENOSINE DERIVATIVES FOR USE IN THE TREATMENT OF NEURODEGENERATIVE DISORDERS AND CANCER” (UNIVERSITY COLLEGE CARDIFF CONSULTANTS LIMITED, priority 2022, published 2026).
# Entries after “also recorded” stand apart in the source; their conditions may differ. Like-named read-outs stand apart in the source and are kept apart here.
# Columns and labels:
# Ub Ser65 phosphorylation [1] = assay: Immunofluorescence for Ub Ser65 phosphorylation in YFP-parkin transfected HeLa cells; format: cell-based
# Method: (§1) Cells were seeded on PerkinElmer PhenoPlate 96-well plates, followed by treatment with compounds. Cells were fixed in chilled 4% PFA for 10 min followed by washes in PBS. […] Following PBS washes, cells were blocked using blocking buffer (PBS, 5% BSA, 0.1% Tween20) for 1 h at room temperature. Primary antibodies were diluted in blocking buffer and added to cells to be incubated overnight at 4° C. Cells were subsequently washed with PBS-T and the appropriate secondary antibodies (diluted in blocking buffer) were added for 2 h at room temperature in darkness. 10 μg/ml of Hoechst 33258 stain was added with secondary antibodies when required. Cells were again washed with PBS-T followed by addition of PBS with 0.02% sodium azide. Cells were then stored at 4° C. until ready for imaging. Primary antibodies used for immunofluorescence are as follows: Phospho-Ub Ser 65 (Sigma-Aldrich cat #ABS1513-1), TOM20 (Santa-Cruz cat #sc-17764). Secondary antibodies and stains used in immunofluorescence; Anti-IgG2a Alexa Fluor™ 546 (ThermoFisher cat #A21133) Anti-rabbit Alexa Fluor™ 647 (ThermoFisher cat #A21244), Hoechst 33258 stain (Sigma-Aldrich cat #B2883).
# (§2) Confocal microscopy was performed using a Zeiss LSM800 w/Airyscan fluorescent microscope equipped with lasers emitting at 405 nm, 488 nm, 561 nm and 640 nm. All images were captured using a 40x oil immersion objective lens and processed using Zeiss ZEN software. Images were analysed and quantified using Columbus (PerkinElmer) and TIBCO Spotfire software.
# (§3) First, HeLa cells transfected with YFP-parkin were either left untreated or treated with 50 μM kinetin riboside, nucleosides 9a and 9c for 24 h.
# [2] = system: HeLa cells transfected with YFP-parkin; assay: Immunofluorescence for YFP-parkin localisation and TOM20 (mitochondrial fragmentation); format: cell-based
# Method: as §1, §2, §3
# [3] = system: ubiquitin Ser65 phosphorylation; assay: Ubiquitin Ser65 phosphorylation in astrocytes with or without valinomycin; format: cell-based; details: for ubiquitin Ser65 phosphorylation after pre-treatment followed by valinomycin, compared to valinomycin alone: 50 μM 24 h, 50 nM valinomycin for 5 h; for ubiquitin Ser65 phosphorylation, compound alone: 50 μM, 24 h
# Method: Briefly, astrocytes were treated with 50 μM of the nucleobase kinetin, nucleosides 9a and 9c or DMSO for 24 h and 5 h prior to lysis, the samples were treated with 50 nM valinomycin, a mitochondrial uncoupler.
# PINK1 [4] = biological target: T1, PINK1 (Homo sapiens, UniProt Q9BXM7); assay: PINK1 activation in cells judged by parkin Ser65 phosphorylation (parkin-transfected HeLa cells); format: cell-based; details: 50 μM, 1 h
# T1 construct: HeLa cells, which express PINK1 endogenously; endogenous in cells; host or cells: HeLa cells transiently transfected with parkin
# Method: (§4) Both HeLa and parkin-overexpressed HeLa cells were maintained in DMEM high glucose (Gibco), 10% FBS (Sigma-Aldrich) at 37° C. with 5% CO2. For experiments, cells were counted and seeded into a range of culture plates, depending on the experiment, cell counting was done using the Cellometer Auto T4 with TrypanBlue (Gibco). […] Alternatively, HeLa cells were seeded in well plates and then transfected with […] of parkin cDNA using the PEI method once the plated cells reached 60% confluency. After 6 hours, the media was changed. Sub-culturing was done when the cells reached ˜90% confluency.
# (§5) Cell culture with 70-80% confluency was lysed as follows: cells were washed with Phosphate Buffer Saline (PBS) (Sigma). 150 μl of lysis buffer was used on each well containing either: • 50 mM Tris-HCl pH 7.5, 1 mM EDTA, 1 mM EGTA, 0.27 M sucrose, 1 mM Na3VO4, 50 mM NaF, 5 mM Na pyrophosphate and fresh 1 mM benzamidine, 1% NP-40 and […]; or • 50 mM Tris-HCl pH 7.5, 1 mM EDTA, 1 mM EGTA, 10 mM Na β-glycerophosphate, 0.27 M sucrose, 1 mM Na3VO4, 50 mM NaF, 10 mM Na pyrophosphate with fresh 1 mM benzamidine, 1% Triton X-100, complete EDTA-free Protease Inhibitor, Phosphatase inhibitor cocktail 3 and 100 μM of 2-chloroacetamide.
# (§6) The cells were scrapped and transferred to the microtube and eventually spun down at 12,000 rpm for 15 minutes at 4° C. Finally, the supernatant was transferred to the new microtubes and stored at −20° C. Protein concentration was measured using Bradford Assay. Serial concentrations 0.125; 0.25; 0.5 and 1 mg/ml of Bovine Serum Albumin (BSA) (Sigma Aldrich) were used as a standard. Samples were boiled at 90° C. for 5 minutes in SDS sample loading buffer.
# Ub Ser65 phosphorylation [5] = assay: Phospho-Ub (Ub Ser65) immunoblotting in parkin- or YFP-parkin-transfected HeLa cells; format: cell-based; details: immunoblot; for ubiquitin phosphorylation, niclosamide or CCCP only (controls): YFP-parkin HeLa cells, 10 μM, 1 h; for phosphorylation of Ub at Ser65, niclosamide or CCCP treatment alone (controls): 10 μM CCCP 3 h
# Method: as §4, §5, §6
# The next day membranes were washed in TBST and incubated with horse radish peroxidase (HRP)-conjugated antibodies for 1 h at room temperature with agitation. Following TBST washes, proteins were visualised using Amersham™ ECL™ Prime kit (GE Biosciences) and imaged using the Bio-rad ChemicDoc. Primary antibodies used for western blotting; GAPDH (Abcam cat #ab9485), Phospho-Ub Ser 65 (Sigma-Aldrich cat #ABS1513-1), LC3B (Cell Signaling cat #3868S). Secondary antibodies used for western blotting; anti-rabbit HRP (Agilent Dako cat #P0399), anti-mouse HRP (Agilent Dako cat #P0260).
# (§7) To explore this, we first treated parkin-transfected HeLa cells for 24 h with 50 μM kinetin, kinetin riboside or kinetin riboside ProTide, a monophosphate prodrug of kinetin riboside.
# PINK1 [6] = biological target: T1, PINK1; details: in presence of the de-polarizing agent CCCP; cited from earlier work
# OPA1 = OPA1 cleavage immunoblot (mitochondrial membrane depolarization) in parkin-transfected HeLa cells; format: cell-based; details: 10 μM CCCP 3 h
# Method: as §4, §5, §6, §7
# [7] = system: HeLa cells transfected with YFP-parkin; assay: TMRM fluorescence (mitochondrial membrane potential); format: cell-based
# Method: For assessing tetramethylrhodamine methyl ester perchlorate (TMRM) fluorescence, cell media was removed and replaced with cell media consisting of 5 nM TMRM (ThermoFisher) and 10 μg/ml Hoechst 33258 stain for 30 mins in the dark at 37° C. to allow incorporation of TMRM into mitochondria. Following PBS washes, FluoroBrite DMEM (Gibco) media was added to cells, followed by subsequent imaging using a Zeiss LSM800 microscope at 37° C. with 5% CO2.
# [8] = system: immortalised MEF expressing PINK1 wild-type (WT); assay: MitoQC mitophagy assay, MEF expressing PINK1 wild-type; format: cell-based; details: 20 μM CCCP, 24 h
# Excerpt: (§8) With the inhibition of ubiquitin phosphorylation and parkin localisation to the mitochondria by kinetin riboside and the nucleoside analogue 9c, we next asked whether these compounds still induce mitophagy in a PINK1 dependent manner. To explore this, we employed the established MitoQC assay for measuring mitophagy in cells^11,12.
# PINK1 KO MEFs = assay: MitoQC mitophagy assay, PINK1 knock-out MEF; format: cell-based; details: 20 μM CCCP, 24 h
# Excerpt: as §8
# [9] = 50 μM, 24 h, no niclosamide or CCCP
# T1 sequence (Q9BXM7 78-581): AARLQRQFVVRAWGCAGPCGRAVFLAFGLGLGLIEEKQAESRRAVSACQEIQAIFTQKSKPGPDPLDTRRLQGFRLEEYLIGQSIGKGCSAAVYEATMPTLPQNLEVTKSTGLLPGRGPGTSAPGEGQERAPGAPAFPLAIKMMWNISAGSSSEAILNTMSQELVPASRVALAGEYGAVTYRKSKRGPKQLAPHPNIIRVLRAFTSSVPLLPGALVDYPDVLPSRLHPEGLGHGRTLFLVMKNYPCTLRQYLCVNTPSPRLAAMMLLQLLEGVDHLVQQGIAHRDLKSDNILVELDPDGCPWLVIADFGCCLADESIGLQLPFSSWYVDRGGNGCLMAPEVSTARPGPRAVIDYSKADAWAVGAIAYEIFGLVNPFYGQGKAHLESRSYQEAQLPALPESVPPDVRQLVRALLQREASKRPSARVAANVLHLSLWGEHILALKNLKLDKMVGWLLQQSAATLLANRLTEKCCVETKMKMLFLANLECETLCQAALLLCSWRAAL
compound,measurement,setting,value
"CNc1ncnc2c1ncn2[C@@H]1O[C@H](CO)[C@@H](O)[C@H]1O [9a, (2R,3S,4R,5R)-2-(hydroxymethyl)-5-(6-(methylamino)-9H-purin-9-yl)tetrahydrofuran-3,4-diol]","ubiquitin Ser65 phosphorylation after pre-treatment followed by CCCP, compared to CCCP alone","Ub Ser65 phosphorylation [1]; 50 μM 24 h, then 10 μM CCCP, immunofluorescence",did not have a significant impact
same,"impact on ubiquitin phosphorylation, compound alone","Ub Ser65 phosphorylation [1]; 50 μM, 24 h, no niclosamide or CCCP, immunofluorescence",did not have any impact
same,"parkin localisation to the mitochondria after pre-treatment followed by CCCP, compared to CCCP alone","[2]; 50 μM 24 h, then 10 μM CCCP",did not have a significant impact
same,"impact on mitochondrial fragmentation (TOM20), compound alone",[2]; [9],did not have any impact
same,"impact on parkin localisation, compound alone",[2]; [9],did not have any impact
same,"ubiquitin Ser65 phosphorylation after pre-treatment followed by valinomycin, compared to valinomycin alone",[3],significant suppression of ubiquitin Ser65 phosphorylation
same,"ubiquitin Ser65 phosphorylation, compound alone",[3],increased phosphorylation
"CC(C)(C)CNc1ncnc2c1ncn2[C@@H]1O[C@H](CO)[C@@H](O)[C@H]1O [9f, (2R3S,4R,5R)-2-(hydroxymethyl)-5-(6-(neopentylamino)-9K-purin-9-yl)tetrahydrofuran-3,4-diol]",activation of PINK1 as judged by parkin Ser65 phosphorylation,PINK1 [4],exhibited pronounced activation of PINK1 apart from compound 9f
"c1coc(CNc2ncnc3[nH]cnc23)c1 [kinetin, reference compound]",inhibition of CCCP-induced phosphorylation of ubiquitin by pre-treatment,"Ub Ser65 phosphorylation [5]; parkin-transfected HeLa cells, 50 μM 24 h, then 10 μM CCCP 3 h",did not
same,"phosphorylation of ubiquitin (Ub Ser65), compound alone","Ub Ser65 phosphorylation [5]; parkin-transfected HeLa cells, 50 μM, 24 h, no CCCP",did not lead to any notable phosphorylation of ubiquitin
same,"ubiquitin Ser65 phosphorylation after pre-treatment followed by valinomycin, compared to valinomycin alone",[3],significant suppression of ubiquitin Ser65 phosphorylation
same,"ubiquitin Ser65 phosphorylation, compound alone",[3],increased phosphorylation
same,PINK1 activation in cells exposed to CCCP,PINK1 [6],enhanced PINK1 activation
"O=C(Nc1ccc([N+](=O)[O-])cc1Cl)c1cc(Cl)ccc1O [niclosamide, reference compound]","ubiquitin phosphorylation, niclosamide or CCCP only (controls)",Ub Ser65 phosphorylation [5],induced strong ubiquitin phosphorylation
same,"phosphorylation of Ub at Ser65, niclosamide or CCCP treatment alone (controls)",Ub Ser65 phosphorylation [5]; parkin-transfected HeLa cells,strong phosphorylation of Ub at Ser65
same,"OPA1 cleavage (mitochondrial membrane depolarization), niclosamide or CCCP alone",OPA1,led to OPA1 cleavage
same,"phosphorylation of ubiquitin, niclosamide or CCCP alone","Ub Ser65 phosphorylation [1]; YFP-parkin HeLa cells, 10 μM, 1 h, immunofluorescence",induced significant phosphorylation of ubiquitin
same,"mitochondrial membrane potential, niclosamide or CCCP","[7]; 10 μM, data not shown",membrane potential collapse
"carbonyl cyanide m-chlorophenyl-hydrazine [CCCP, reference compound]","ubiquitin phosphorylation, niclosamide or CCCP only (controls)",Ub Ser65 phosphorylation [5],induced strong ubiquitin phosphorylation
same,"phosphorylation of Ub at Ser65, niclosamide or CCCP treatment alone (controls)",Ub Ser65 phosphorylation [5]; parkin-transfected HeLa cells,strong phosphorylation of Ub at Ser65
same,"OPA1 cleavage (mitochondrial membrane depolarization), niclosamide or CCCP alone",OPA1,led to OPA1 cleavage; also recorded: associated with cleavage of OPA1
same,"phosphorylation of ubiquitin, niclosamide or CCCP alone",Ub Ser65 phosphorylation [1],induced significant phosphorylation of ubiquitin; also recorded: induced strong ubiquitin phosphorylation
same,"parkin localisation to the mitochondria, CCCP treatment alone",[2]; 10 μM CCCP,promoted parkin localisation to the mitochondria
same,"mitochondrial membrane potential, niclosamide or CCCP",[7],membrane potential collapse
same,"mitophagy in PINK1 WT MEFs, CCCP",[8],induced an increase in mitophagy
same,"mitophagy in PINK1 KO MEFs, CCCP",PINK1 KO MEFs,not in PINK1 KO MEFs
